{"source": "patent US20260184700A1", "about": "“PDK1 REGULATORY COMPOUND AND COMPOSITION CONTAINING THE SAME” (PROVIBIO CO., LTD., priority 2024, published 2026)", "key": {"[1]": {"test_system": "phospho-PDK1 in SU-DHL-8 cells", "experiment": "PDK1 phosphorylation (pPDK1) by flow cytometry in SU-DHL-8 cells", "type": "cell-based, human", "settings": "SU-DHL-8, 24 hours, pPDK1-PE flow cytometry, vs control group", "protocol": "SU-DHL-8 cells were cultured in RPMI-1640 medium (containing 10% FBS, 100 U/mL penicillin, and 100 μg/mL streptomycin), and the cell concentration was adjusted to 1×10^6 cells/mL and seeded into a 12-well plate. After stabilizing the cells, the compound of the present invention was added, and the cells were cultured for 24 hours.\nAfter drug treatment, the cells were harvested, and the Fc receptor blocking process was performed. The cells were then fixed and permeabilized using the Intracellular Staining Kit (Cat. No. BD554715) from BD Biosciences. Subsequently, the intracellular pPDK1 was stained using the pPDK1-PE fluorescently labeled antibody (BD Biosciences).\nReferring to the figure, the vertical axis represents the phosphorylation level of PDK1 (phospho-PDK1 expression level), and the horizontal axis denotes the concentration-dependent treatment conditions of each compound."}, "MRL/lpr mice": {"test_system": "MRL/lpr mice", "experiment": "Lupus animal model (MRL/lpr mice)", "type": "in vivo, mouse", "source_text": "The MRL/MpJ-Faslpr/J (Hereinafter Referred to as “MRL/lpr”) used in this experiment is one of the representative animal models for systemic lupus erythematosus (SLE), known to produce various autoantibodies, including antinuclear antibodies, due to the lpr (lymphoproliferation) gene.\nIn this invention, the period up to 9 weeks of age was considered the pre-disease stage, and the period after 23 weeks of age was considered the post-disease stage, and efficacy verification experiments using this model were conducted.\nMRL/lpr mice were imported from The Jackson Laboratory and acclimatized for one week in an SPF (Specific Pathogen Free) facility maintained at a temperature of 21-24° C., humidity of 40-60%, and a 12-hour light-dark cycle (lights on at 7:00 AM, lights off at 7:00 PM). […]\nThe serum separated at the time of necropsy of the lupus animal model was analyzed using the ‘IgG (Total) Mouse Uncoated ELISA Kit (Invitrogen, Cat. #88-50400)’ to measure the concentration of total IgG.\nCapture antibody (anti-mouse IgG) diluted 1/250 in coating buffer was added to each well of a 96-well plate (Nunc™ MaxiSorp™ ELISA Plates, Uncoated, BioLegend, Cat. #423501) at 100 μl per well, and the plate was incubated at 4° C. for 16 hours.\nTo investigate the effect of GO15F administration on changes in the ratio of immune cells in the spleen of a lupus animal model, the spleens of mice administered each compound were excised, cells were extracted, and the cells were suspended in MACS buffer (autoMACS Washing Solution, Miltenyi Biotec., Cat. #130-092-987).\nFor flow cytometry analysis, FACS tubes (5 mL round tubes, Falcon, Cat. #352052) were used. To prevent non-specific binding of antibodies, 1 μg/mL of anti-mouse CD16/CD32 (InVivoPlus anti-mouse CD16/CD32, BioXCell, Cat. #BP0307) for 30 minutes to prevent non-specific binding of the antibody, then centrifuge at 1,500 rpm for 5 minutes and resuspend in 100 μL of MACS buffer.\nFor B cells, each FACS tube was stained with 1 μg/mL of FITC-conjugated anti-B220 antibody (eBioscience™, Cat. #11-0452-81) at 4° C. for 30 minutes, then washed with 2 mL of MACS buffer.\nFor T cells, each FACS tube was stained with 1 μg/mL PerCP-Cy5.5-conjugated anti-CD3 (Biolegend, Cat. #100218) at 4° C. for 30 minutes.\nFor macrophages, each FACS tube was stained with 1 μg/mL of PE-conjugated anti-CD11b antibody (Biolegend, Cat. #101207) and PerCP-Cy5.5-conjugated anti-F4/80 (Biolegend, Cat. #123128) and incubated at 4° C. for 30 minutes. The tubes were then washed with 2 mL of MACS buffer.\nTo investigate the effects of compound GO15F according to the present invention on systemic immune responses in a lupus animal model, gene expression analysis of cytokines in kidney tissue was performed as described in (1).\nEach kidney tissue was used to isolate total RNA using TRIzol™ (Invitrozen, Cat. #15596018). RNA from each mouse was quantified at 1 μg using a micro-quantitative spectrophotometer (ThermoFisher Scientific, ND2000) and cDNA was synthesized.\nThe synthesized cDNA from each mouse was quantified to a concentration of 50 ng using a micro-quantitative spectrophotometer, and qPCR was performed for the cytokines ‘IL-2, IL-6, IL-10, IL-17, TNF-α, IFN-γ’ using a SYBR green probe (CFX96, BIO-RAD).\nTo investigate the effects of drug administration on renal tissue in MRL/lpr mice, the tissue was fixed in 10% neutral buffered formalin at room temperature, followed by stepwise ethanol penetration for dehydration. The tissue was then embedded in xylene and paraffin.\nThe blocked tissues were sectioned into 4 μm thick slices using a microtome, followed by deparaffinization, hydration, and staining.\nHematoxylin & Eosin staining, PAS staining, and Masson trichrome staining were performed for pathological evaluation of the tissues. […]"}, "[2]": {"test_system": "NHDF (Normal Human Dermal Fibroblast) cells", "experiment": "Doxorubicin-induced aging NHDF cell model, SA-β-gal and Ki-67", "type": "cell-based", "settings": "Doxorubicin (100 ng/ml) and IGF-1 (100 ng/ml), GO15F 0.01, 1 μM, 7 days", "protocol": "After pre-incubation, the medium was removed, and the cells were cultured for 7 days in medium containing Doxorubicin (100 ng/ml) and IGF-1 (100 ng/ml) with GO15F. During this process, the medium was replaced with fresh medium every 2 days. The cultured cells were washed with PBS, fixed with 1× fixation buffer for 15 minutes, washed again with PBS, and then 300 μL of 1× working SA-β-gal buffer was added to each well. The cells were incubated at 37° C. for 24 hours. After the reaction was terminated, the cells were washed with PBS, and the fluorescence intensity of β-gal-positive cells stained blue was observed and photographed using a light microscope. Additionally, to investigate the effect of the compound (GO15F) of the present invention on proliferation activity in aging-induced NHDF (Normal Human Dermal Fibroblast) cells, Ki-67 expression was measured via FACS analysis. First, NHDF cells were seeded at 1×10^4 cells per well in a 12-well plate and stabilized for 24 hours. Subsequently, the cells were pre-incubated with GO15F at a concentration of 0.01 μM for 24 hours. After pre-incubation, the medium was removed, and GO15F (0.01 μM) was added to the medium containing Doxorubicin (100 ng/ml) and IGF-1 (100 ng/ml), followed by incubation for 7 days with fresh medium replaced every 2 days. […]"}, "[3]": {"test_system": "bleomycin-treated Balb/c mice", "experiment": "Bleomycin-induced pulmonary fibrosis animal model", "type": "in vivo, mouse", "settings": "bleomycin mice lung, vs BLM-treated group", "source_text": "To evaluate the therapeutic efficacy of the compound according to the present invention against pulmonary fibrosis, an animal model of pulmonary fibrosis induced by bleomycin intratracheal administration was established.\nFor this purpose, 8-week-old male Balb/c mice were subjected to general anesthesia using an inhalation anesthetic (2-3% isoflurane in oxygen), followed by disinfection of the neck region, skin incision, and exposure of the trachea.\nBleomycin (Sigma-Aldrich, USA) was directly administered into the trachea at a concentration of 5 mg/kg in a solution of 100 μL.\nTwo days prior to Bleomycin administration, the compound of the present invention or the comparative drug was administered intraperitoneally at the specified concentration and dose, and the administration was continued once daily for a total of 14 days.\nThe experimental groups included Normal, Bleomycin alone (BLM), and BLM plus the compound of the present invention (BLM+GO88, 0.2 mg/kg).\nTen days later, the mice were euthanized humanely using carbon dioxide gas, the trachea was incised, and PBS was injected into the trachea to remove blood from the lungs.\nThe lung tissue washed with PBS was excised, fixed in 4% paraformaldehyde solution for 24 hours, and then paraffin blocks and tissue sections were prepared. The prepared sections were subjected to pathological analysis using H & E, Masson's trichrome, and Sirius red staining.\nAdditionally, immunohistochemical (IHC) staining was performed for α-SMA (α-smooth muscle actin), an indicator of lung fibroblast activation."}, "[4]": {"settings": "MRL/lpr mice, serum at necropsy, ELISA, vs control group"}}, "data": [{"compound": "Nc1ncccc1C(=O)NCCCCCCCCCCCCF", "note": "[Compound 57, 2-Amino-N-(12-fluoro-dodecyl)-nicotinamide]", "values": [{"measurement": "PDK1 phosphorylation (phospho-PDK1 expression level)", "setting": "[1]", "result": "inhibitory effect on PDK1 phosphorylation"}, {"measurement": "hair growth on the facial region", "setting": "MRL/lpr mice; 41-week-old female MRL/lpr mice, GO15F (30 mg/kg), GO48 (1 mg/kg), GO88 (0.5 mg/kg) intraperitoneally once daily", "result": "hair growth was confirmed"}, {"measurement": "renal pathological tissue (glomerular capillary loops)", "setting": "MRL/lpr mice; MRL/lpr mice, H&E, PAS, Masson trichrome staining", "result": "glomerular capillary loops were well maintained"}, {"measurement": "B cells, T cells, and macrophages in the spleen", "setting": "MRL/lpr mice; MRL/lpr mice, flow cytometry (B220, CD3, CD11b/F4/80)", "result": "reduced the increased B cells, T cells, and macrophages"}, {"measurement": "IgG deposition in kidney tissue", "setting": "MRL/lpr mice; MRL/lpr mice, immunofluorescence staining", "result": "significantly lower"}, {"measurement": "concentration of anti-dsDNA IgG in the blood", "setting": "MRL/lpr mice; [4]", "result": "significantly lower"}, {"measurement": "total IgG concentration in the blood", "setting": "MRL/lpr mice; [4]", "result": "significantly lower"}, {"measurement": "protein concentration in urine", "setting": "MRL/lpr mice; MRL/lpr mice, weekly urine, Bradford, vs control group", "result": "significantly lower than that in the control group"}, {"measurement": "number of β-gal-positive cells", "setting": "[2]", "result": "decreased"}, {"measurement": "collagen deposition (Masson's trichrome and Sirius red staining)", "setting": "[3]", "result": "significantly reduced"}, {"measurement": "expression of α-SMA (IHC)", "setting": "[3]", "result": "significantly suppressed"}]}]}
